Experimental data reported in patent US20250002470A1, “NITROGEN-CONTAINING COMPOUND, PREPARATION METHOD THEREFOR AND APPLICATION THEREOF” (ZHEJIANG AIXPLORER BIOTECH CO., LTD., priority 2021, published 2025).
Marks after values point to notes of the source that are not given here.

Tested on: DSS-induced acute enteritis mouse model
Assay: DSS-induced acute enteritis mouse model (body weight, DAI score, colon length)
Assay type: in vivo, C57BL/6 mice
Description: Grouping and modeling: One day before the start of the experiment, all C57BL/6 mice were ear-labeled and recorded, and the animals with appropriate weight and normal status were selected for grouping (Sham group, vehicle group and embodiment 33 group). 10 animals per group; 3.5% dextran sulfate sodium salt (DSS, MP, molecular weight 36000-50000) prepared with sterile water is loaded into the drinking bottle in the vehicle and the 33 testing groups of rearing cages in the embodiment (100 mL per cage, replace the 3.5% DSS solution after 2-3 days with freshly prepared solution), and the animals in the vehicle and the 33 testing groups of the embodiment are free to drink for 10 consecutive days. The Sham group drank the normal water not containing DSS. Embodiment 33 compound is administered orally BID.
1) Body Weight Change (%)=BWi/BW0×100%, BWi is the average body weight of mice in the group on a given day, BW0 is the average body weight of mice before the start of treatment.
2) DAI score: The Disease Activity Index (DAI) scoring criteria are as follows:
3) Colon length: After the last dose, all animals were euthanized with CO2 and dissected. The entire colon (anus-cecum section) was isolated, moistened with ice-cold saline, smoothed and laid flat. On the dissecting board, without applying external force to stretch, use a digital vernier caliper to measure the length of the colon and record it, and take photos for retention.

[1] = 50 mpk P.O Bid, 3.5% DSS, day 11, n = 10

For `Cc1nc(N[C@@H]2CCCC[C@H]2O)nnc1-c1ccc(C(F)(F)F)cc1O` [Embodiment 33], the “curative effect on animals with DSS-induced acute enteritis (IBD)” value (50mpk P.O Bid) was “significant curative effect”, the “Day 11 weight change (%)” value [1] was 88.09% and the “Rate of body weight loss (%)” value [1] was 11.91%**. The DAI score (50 mpk P.O Bid, Day 3) was 0.00, the DAI score (50 mpk P.O Bid, Day 5) was 2.60 ± 0.45 and the DAI score (50 mpk P.O Bid, Day 7) was 4.40 ± 0.6. The DAI score (50 mpk P.O Bid, Day 9) was 6.20 ± 0.68, the DAI score (50 mpk P.O Bid, Day 11) was 7.80 ± 0.63 and the Colon length (50 mpk P.O Bid, after the last dose, n = 10) was 58.27 ± 1.48 mm.
